Paper PMC8238948, “Potent inhibitors of toxic alpha-synuclein identified via cellular time-resolved FRET biosensors” (NPJ Parkinson's Disease, 2021)
Entries after “also recorded” stand apart in the source; their conditions may differ. Structures can show the parent of a compound that is named as a salt.

How the values were obtained:
[1] = tested on: differentiated SH-SY5Y cells treated with sonicated human αSN PFF; test: Differentiated SH-SY5Y cell model of αSN PFF pathology (pS129 immunoblot); type: cell-based; conditions: 1 μM compound, 200 nM human PFF, 48 h; for total pS129 signal (words): relative to DMSO
Method: SH-SY5Y cells were differentiated using reduced serum (3%) media supplemented with 10 μM retinoic acid for 3 days and then changed to serum-free media supplemented with 10 ng/mL brain-derived neurotrophic factor for the remainder of the experiment. Stock αSN PFFs were diluted and sonicated as described previously. SH-SY5Y cultures were then treated with 200 nM PFF and PBS, DMSO, 1 μM drug compound (RO, BAY, or DEM), or 50 μM Baicalin. After 48 h, SH-SY5Y were washed with PBS and harvested in cold lysis buffer with protease and phosphatase inhibitors, as previously described. Approximately 15 μg of total protein was loaded onto a 4–20% Criterion TGX midi gel and probed using Syn1 (BD Biosciences, #610787; 1° 1:5000; 2° 1:10K) and pS^129 aSyn (abcam, ab59264; 1° 1:1000; 2° 1:5000) and a-tubulin (abcam, ab4074; 1° 1:1000; 2° 1:10K) page 19: Supplemental Figure 18. […] Differentiated SH-SY5Y cells were treated with PBS, vehicle (DMSO) or compounds with and without 200nM sonicated human αSN PFFs. […] These will be removed in subsequent densitometry analysis. (b) Replicates of PFF +/- compound treatment were ran for immunoblot analysis of pS129 immunoreactivity. (c) Densitometry analysis was performed using ImageLab from BioRad. Total pS129 signal (excluding the non- specific bands) was normalized to tubulin loading control. […] Quantification is normalized per lane to highlight change in the ratio of different species. Note, oligomers quantification is plotted relative to the right-y- axis. All statistical comparisons were to DMSO treatment using two-tailed t-test with * p<0.05; ** p<0.01; *** p<0.005.

[2] = biological target: T1, αSN oligomers (Homo sapiens, UniProt P37840); test: ThT content (β-sheet) of αSN oligomers after oligomerization assay; type: biochemical; conditions: 70 μM compound (1:5 compound:monomer), 12 h oligomerization; vs DMSO
T1 construct: made in house; host or cells: Escherichia coli BL21(DE3), T7-7 plasmid
Method: To explore the presence of β-sheet content in these oligomers, an aliquot was removed prior to cross-linking, diluted into 100 μM ThT working solution, and ThT fluorescence was monitored to detect the presence of β-sheet. Supplementary Fig. 22 presents each sample ThT content normalized to the PFF signal. We observed an increased ThT content in the αSN oligomers (αS-O) that was not affected by DMSO (vehicle) treatment.
A 10-μL aliquot from each sample was taken and diluted with 290 μL ThT working solution (100 μM ThT in PBS) and dispensed into 3 wells of a 384-well, black opaque plate. Additional samples of PBS, αSN(m), and αSN PFF were used as controls. Plates were incubated at ambient temperature for 10 min and then fluorescence read at 450ex/490em on a Spectromax-i3x (Molecular Devices).
Supplemental Figure 22. Characterization of β-sheet content in αSN oligomers due to hit compound
After the 12-hour oligomerization assay aliquots of each sample were
removed and diluted in 100μM ThT and fluorescence read in triplicate (450ex/490em) in 384-well plates. The
ThT signal was normalized to a signal from previously frozen αSN PFF aliquots. After completion of the
PFF, green bar) and the ThT signal was not affected by DMSO (red bar). Oligomerization in the presence of
control compounds, EGCG and Baicalin, at 70μM (a sub-stoichiometric,1:5 compound: monomer ratio)
Our hit compounds RO, DEM, and BAY had differential effects with
both DEM and BAY resulting in increased ThT content and RO not producing a significant change relative to
(1 picture or pasted object on this page, not shown here)

[3] = biological target: T2, WT αSN oligomer (inter-protomeric) FRET biosensor in HEK293 cells (Homo sapiens, UniProt P37840); test: FLT dose response, WT oligomer (inter-protomeric) FRET biosensor; type: cell-based; conditions: 1 nM to 50 μM
T2 construct: In addition to full-length αSN fusion constructs, we observe both C-terminally and N-terminally truncated αSN species; expressed in transfected cells; host or cells: HEK293
Method: Hits from the pilot HTS of the LOPAC library were selected and dispensed into 384-well plates to verify reproducible and specific FLT trends using the WT and A53T oligomer (inter-protomeric) FRET biosensors. Figure 6 presents a subset of these dose-response curves for hit compounds RO, BAY, SB206553, and DEM, along with known control compound EGCG. […] Assay quality was determined by Z′ (Eq. 2) where a Z′ > 0.5 indicates good assay quality. Using EGCG as control compound and the hit DEM, we calculated Z′ value of 0.76 and 0.66, respectively, indicating excellent assay quality.
Fig. 6 FRET dose response of pilot HTS hits. A subset of hits were evaluated using both WT (a) and A53T (b) oligomer biosensor to verify both increased FLT (disrupting αSN–αSN interactions) and decreased FLT (tighter aggregation or remodeled oligomers).
Compounds were tested in a FLT dose-response assay. The compound was dissolved to 10 mM in DMSO, then serially diluted in 96-well mother plates. Each hit was re-screened for FLT dose response across eight concentrations (1 nM to 50 μM). Compounds (0.5 μL) were transferred from mother plates into assay plates using a Mosquito HV liquid handler (TTP Labtech Ltd, UK). The preparations for αSN FRET biosensors were carried out as above.

Structure (SMILES) | HMW pS129 assemblies [1] | LMW oligomer pS129 fraction [1] | monomeric pS129 fraction [1] | total pS129 signal (words) [1] | total pS129 signal (words) ([1]; listed as Bay) | ThT signal of αSN oligomers [2] | FLT trend in dose response [3]
COC(=O)C1=C(C)NC(C)=C([N+](=O)[O-])C1c1ccccc1C(F)(F)F (racemic) [BAY, (±)-Bay K 8644] | increase HMW assemblies | not BAY, reduce oligomers | significant reduction | significant increase | increased pS129 signal | increased the ThT signal | reduced FLT
CN(C)[C@@H]1C(O)=C(C(N)=O)C(=O)[C@@]2(O)C(O)=C3C(=O)c4c(O)ccc(Cl)c4[C@@H](O)[C@H]3C[C@@H]12 [DEM, Demeclocycline HCl] | increase HMW assemblies | significantly reduced | significant reduction | non-significant change |  | increased the ThT signal | reduced FLT
Nc1ccc(-c2nc3ccc(-c4nc5ccc(N)cc5[nH]4)cc3[nH]2)cc1 [RO, Ro 90–7501] | increase HMW assemblies | significantly reduced | significant reduction | significant reduction; also recorded: significant decrease |  | no effect | reduced FLT
